# Source: patent publication US11136296B2, “Substituted N-arylethyl-2-arylquinoline-4-carboxamides and use thereof” (Bayer Aktiengesellschaft, priority 2017, dated 2021)
# Molecular target: FP receptor (Homo sapiens (Human), UniProt P43088)
# Assay: In vitro test of inhibition of human FP receptor activity (PGF2α-induced calcium flux in FP-expressing CHEM1 cells)
# Assay type: cell-based
# Conditions: PGF2α-induced (2 nM) calcium flux in FP-expressing CHEM1 cells; some as mean values from multiple determinations
# Text: Table 1 below lists the IC50 values from this assay for individual working examples of the invention (some as mean values from multiple independent individual determinations): […]
# Chain of FP receptor (P43088 whole entry): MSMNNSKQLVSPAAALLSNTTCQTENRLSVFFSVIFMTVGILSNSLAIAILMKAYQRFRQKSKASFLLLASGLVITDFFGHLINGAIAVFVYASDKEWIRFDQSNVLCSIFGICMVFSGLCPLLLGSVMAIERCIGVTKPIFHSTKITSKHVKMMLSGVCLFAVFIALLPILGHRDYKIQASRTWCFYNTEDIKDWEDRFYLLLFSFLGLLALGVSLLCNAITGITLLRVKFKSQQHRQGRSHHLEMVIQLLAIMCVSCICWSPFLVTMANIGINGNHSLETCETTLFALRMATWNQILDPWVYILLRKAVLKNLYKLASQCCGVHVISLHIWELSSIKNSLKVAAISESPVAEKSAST
row,Compound,IC50
1,"Cc1c(-c2ccccc2)nc2ccc(Br)cc2c1C(=O)NCC(C)(CC(=O)O)c1ccccc1Cl (racemic) [Example 114, (+/−)-4-{[(6-Bromo-3-methyl-2-phenylquinolin-4-yl)carbonyl]amino}-3-(2-chlorophenyl)-3-methylbutanoic Acid]",18 nM
2,"Cc1c(-c2ccccc2)nc2ccc(Br)cc2c1C(=O)NCC(C)(CC(=O)O)c1ccccn1 (racemic) [Example 117, (+/−)-4-{[(6-Bromo-3-methyl-2-phenylquinolin-4-yl)carbonyl]amino}-3-methyl-3-(pyridin-2-yl)butanoic Acid]",240 nM
3,"COc1ccccc1C(C)(CNC(=O)c1c(C)c(-c2ccccc2)nc2ccc(Br)cc12)CC(=O)O (racemic) [Example 120, (+/−)-4-{[(6-Bromo-3-methyl-2-phenylquinolin-4-yl)carbonyl]amino}-3-(2-methoxyphenyl)-3-methylbutanoic Acid]",30 nM
4,"COc1cccc(F)c1C(CNC(=O)c1c(C)c(-c2ccccc2)nc2ccc(Br)cc12)CC(=O)O (racemic) [Example 126, (+/−)-4-{[(6-Bromo-3-methyl-2-phenylquinolin-4-yl)carbonyl]amino}-3-(2-fluoro-6-methoxyphenyl)butanoic Acid]",39 nM
5,"CCOc1ccccc1C(CNC(=O)c1c(C)c(-c2ccccc2)nc2ccc(Br)cc12)CC(=O)O (racemic) [Example 129, (+/−)-4-{[(6-Bromo-3-methyl-2-phenylquinolin-4-yl)carbonyl]amino}-3-(2-ethoxyphenyl)butanoic Acid]",130 nM
6,"COc1ccc(F)cc1C(C)(CNC(=O)c1c(C)c(-c2ccccc2)nc2ccc(Br)cc12)CC(=O)O (racemic) [Example 132, (+/−)-4-{[(6-Bromo-3-methyl-2-phenylquinolin-4-yl)carbonyl]amino}-3-(5-fluoro-2-methoxyphenyl)-3-methylbutanoic Acid]",32 nM
7,"COc1cc(F)ccc1C(C)(CNC(=O)c1c(C)c(-c2ccccc2)nc2ccc(Br)cc12)CC(=O)O (racemic) [Example 138, (+/−)-4-{[(6-Bromo-3-methyl-2-phenylquinolin-4-yl)carbonyl]amino}-3-(4-fluoro-2-methoxyphenyl)-3-methylbutanoic Acid]",42 nM
8,"COc1ccccc1C(CNC(=O)c1c(C)c(-c2ccccc2)nc2ccc(Br)cc12)C(F)(F)C(=O)O (racemic) [Example 141, (+/−)-4-{[(6-Bromo-3-methyl-2-phenylquinolin-4-yl)carbonyl]amino}-2,2-difluoro-3-(2-methoxyphenyl)butanoic Acid]",24 nM
9,"Cc1c(-c2ccccc2)nc2ccc(Br)cc2c1C(=O)NC(C)C(CC(=O)O)c1ccccc1Cl (racemic) [Example 145, (+/−)-4-{[(6-Bromo-3-methyl-2-phenylquinolin-4-yl)carbonyl]amino}-3-(2-chlorophenyl)pentanoic Acid]",49 nM
10,"Cc1c(-c2ccccc2)nc2ccc(Br)cc2c1C(=O)NC(C)C(CC(=O)O)c1ccccc1Cl (racemic) [Example 148, (+/−)-4-{[(6-Bromo-3-methyl-2-phenylquinolin-4-yl)carbonyl]amino}-3-(2-chlorophenyl)pentanoic Acid]",42 nM
11,"Cc1c(-c2ccccc2)nc2ccc(Br)cc2c1C(=O)NCC(CCC(=O)O)c1ccccc1Cl (racemic) [Example 151, (+/−)-5-{[(6-Bromo-3-methyl-2-phenylquinolin-4-yl)carbonyl]amino}-4-(2-chlorophenyl)pentanoic Acid]",7.8 nM
12,"Cc1c(-c2ccccc2)nc2ccc(Br)cc2c1C(=O)NCC(C)(CCC(=O)O)c1cc(F)ccc1Cl (racemic) [Example 169, (+/−)-5-{[(6-Bromo-3-methyl-2-phenylquinolin-4-yl)carbonyl]amino}-4-(2-chloro-5-fluorophenyl)-4-methylpentanoic Acid]",26 nM
13,"Cc1c(-c2ccccc2)nc2ccc(Br)cc2c1C(=O)NCC(CCC(=O)O)c1ccccc1F (racemic) [Example 175, (+/−)-5-{[(6-Bromo-3-methyl-2-phenylquinolin-4-yl)carbonyl]amino}-4-(2-fluorophenyl)pentanoic Acid]",15 nM

# The remaining lines, values ahead:
row,IC50,Compound
1,11 nM,"COc1ccc(F)cc1C(CNC(=O)c1c(C)c(-c2ccccc2)nc2ccc(Br)cc12)CC(=O)O (racemic) [Example 123, (+/−)-4-{[(6-Bromo-3-methyl-2-phenylquinolin-4-yl)carbonyl]amino}-3-(5-fluoro-2-methoxyphenyl)butanoic Acid]"
2,13 nM,"COc1c(F)cc(F)cc1C(C)(CNC(=O)c1c(C)c(-c2ccccc2)nc2ccc(Br)cc12)CC(=O)O (racemic) [Example 135, (+/−)-4-{[(6-Bromo-3-methyl-2-phenylquinolin-4-yl)carbonyl]amino}-3-(3,5-difluoro-2-methoxyphenyl)-3-methylbutanoic Acid]"
3,15 nM,"COc1cccc(F)c1C(C)(CNC(=O)c1c(C)c(-c2ccccc2)nc2ccc(Br)cc12)CC(=O)O (racemic) [Example 142, (+/−)-4-{[(6-Bromo-3-methyl-2-phenylquinolin-4-yl)carbonyl]amino}-3-(2-fluoro-6-methoxyphenyl)-3-methylbutanoic Acid]"
4,15 nM,"Cc1c(-c2ccccc2)nc2ccc(Br)cc2c1C(=O)NCC(C)(CCC(=O)O)c1ccccc1Cl (racemic) [Example 154, (+/−)-5-{[(6-Bromo-3-methyl-2-phenylquinolin-4-yl)carbonyl]amino}-4-(2-chlorophenyl)-4-methylpentanoic Acid]"
5,3.7 nM,"Cc1c(-c2ccccc2)nc2ccc(Br)cc2c1C(=O)NCC(CCC(=O)O)c1c(F)cccc1Cl (racemic) [Example 157, (+/−)-5-{[(6-Bromo-3-methyl-2-phenylquinolin-4-yl)carbonyl]amino}-4-(2-chloro-6-fluorophenyl)pentanoic Acid]"
6,13 nM,"Cc1ccccc1C(CCC(=O)O)CNC(=O)c1c(C)c(-c2ccccc2)nc2ccc(Br)cc12 (racemic) [Example 160, (+/−)-5-{[(6-Bromo-3-methyl-2-phenylquinolin-4-yl)carbonyl]amino}-4-(2-methylphenyl)pentanoic Acid]"
7,8.7 nM,"Cc1c(-c2ccccc2)nc2ccc(Br)cc2c1C(=O)NCC(CCC(=O)O)c1cc(F)ccc1Cl (racemic) [Example 163, (+/−)-5-{[(6-Bromo-3-methyl-2-phenylquinolin-4-yl)carbonyl]amino}-4-(2-chloro-5-fluorophenyl)pentanoic Acid]"
8,6.1 nM,"COc1ccccc1C(CCC(=O)O)CNC(=O)c1c(C)c(-c2ccccc2)nc2ccc(Br)cc12 (racemic) [Example 166, (+/−)-5-{[(6-Bromo-3-methyl-2-phenylquinolin-4-yl)carbonyl]amino}-4-(2-methoxyphenyl)pentanoic Acid]"
9,6.5 nM,"Cc1c(-c2ccccc2)nc2ccc(Br)cc2c1C(=O)NCC(CCC(=O)O)c1ccccc1OC(F)F (racemic) [Example 178, (+/−)-5-{[(6-Bromo-3-methyl-2-phenylquinolin-4-yl)carbonyl]amino}-4-[2-(difluoromethoxy)phenyl]pentanoic Acid]"
10,9.2 nM,"Cc1c(-c2ccccc2)nc2ccc(Br)cc2c1C(=O)NCC(CCC(=O)O)c1c(F)cccc1F (racemic) [Example 181, (+/−)-5-{[(6-Bromo-3-methyl-2-phenylquinolin-4-yl)carbonyl]amino}-4-(2,6-difluorophenyl)pentanoic Acid]"
